Test system: T1, Rhus vernicifera laccase (free laccase)
T1 construct: gene urishiol oxidase
Details: free enzyme; 100 mM sodium citrate buffer, optimum pH (3.5), 25°C; ABTS 0.05-20.0 mM

Km: 1720 ± 380 µM
SMILES: CCn1c(=NN=c2sc3cc(S(=O)(=O)O)ccc3n2CC)sc2cc(S(=O)(=O)O)ccc21 [ABTS, 2,2'-azino-bis (3-ethylbenzothiazoline-6-sulfonic acid)]

Source: publication PMC9895995, “Laccase Immobilization on Copper-Magnetic Nanoparticles for Efficient Bisphenol Degradation” (Journal of Microbiology and Biotechnology, 2022)
